One molecule from EP0907364B1, “SUSTAINED RELEASE PHARMACEUTICAL COMPOSITIONS COMPRISING A DIBENZOTHIAZEPINE DERIVATIVE” (AstraZeneca AB, priority 1996, dated 1997) can be followed below.

This series in a line: physchem. To be noted: 20 °C, water, thermodynamic from solid.

Converted amounts (≈) assume the structure as drawn.

Usually thermodynamic solubility stands for solubility found after equilibrating the solid with the medium. Take `OCCOCCN1CCN(C2=Nc3ccccc3Sc3ccccc32)CC1` [11-[4-[2-(2-hydroxyethoxy)ethyl]-1-piperazinyl]dibenzo[b,f][1,4]-thiazepine]: the solubility (thermodynamic) is 3290 µg/mL (≈ 8.58 mM).
